Converted amounts (≈) assume the structure as drawn.
Legend:
Enterococcus faecalis [1] = assay: Antibacterial activity against vancomycin-resistant Enterococcus faecalis 368 after 24 hrs; format: functional; conditions: Enterococcus faecalis, 368, 24 h
Enterococcus faecalis [2] = assay: Antibacterial activity against vancomycin-susceptible Enterococcus faecalis ATCC 29212 after 24 hrs; format: functional; conditions: ATCC 29212, 24 h
Enterococcus faecalis [3] = assay: Antibacterial activity against vancomycin-resistant Enterococcus faecalis 342B after 24 hrs; format: functional
Enterococcus faecalis [4] = assay: Antibacterial activity against vancomycin-resistant Enterococcus faecalis 725B after 24 hrs; format: functional
Enterococcus faecalis [5] = assay: Antibacterial activity against vancomycin-resistant Enterococcus faecalis 725B assessed as compound concentration causing additive effect after 18 hrs in presence of ciprofloxacin by checkerboard assay; format: functional
[6] = Selectivity index, ratio of LD50 for human THP1 cells to MIC for vancomycin-resistant Enterococcus faecalis 342B; format: toxicity; conditions: THP-1 cells, read-out: Selectivity Index
Enterococcus faecalis [7] = assay: Antibacterial activity against vancomycin-resistant Enterococcus faecalis 342B assessed as compound concentration causing additive effect after 18 hrs in presence of vancomycin by checkerboard assay; format: functional
Enterococcus faecalis [8] = assay: Antibacterial activity against vancomycin-resistant Enterococcus faecalis 368 in presence of tetracycline after 18 hrs by checkerboard assay; format: functional
Enterococcus faecalis [9] = assay: Antibacterial activity against vancomycin-resistant Enterococcus faecalis 342B assessed as vancomycin concentration causing additive effect after 18 hrs by checkerboard assay; format: functional
Enterococcus faecalis [10] = assay: Antibacterial activity against vancomycin-resistant Enterococcus faecalis 342B in presence of vancomycin after 18 hrs by checkerboard assay; format: functional
Enterococcus faecalis [11] = assay: Antibacterial activity against vancomycin-resistant Enterococcus faecalis 725B in presence of tetracycline after 18 hrs by checkerboard assay; format: functional
[12] = Cytotoxicity against human THP1 cells after 24 hrs by LDH release assay; format: cell-based; conditions: THP-1 cells, read-out: LD50
Enterococcus faecalis [13] = assay: Antibacterial activity against vancomycin-resistant Enterococcus faecalis 725B in presence of ciprofloxacin after 18 hrs by checkerboard assay; format: functional
Enterococcus faecalis [14] = assay: Antibacterial activity against vancomycin-resistant Enterococcus faecalis 368 assessed as vancomycin concentration causing additive effect after 18 hrs after 18 hrs by checkerboard assay; format: functional
Enterococcus faecalis [15] = assay: Antibacterial activity against vancomycin-resistant Enterococcus faecalis 368 in presence of vancomycin after 18 hrs by checkerboard assay; format: functional
Enterococcus faecalis [16] = assay: Antibacterial activity against vancomycin-resistant Enterococcus faecalis 725B in presence of vancomycin after 18 hrs by checkerboard assay; format: functional
Enterococcus faecalis [17] = assay: Antibacterial activity against vancomycin-resistant Enterococcus faecalis 342B in presence of tetracycline after 18 hrs by checkerboard assay; format: functional
Enterococcus faecalis [18] = assay: Antibacterial activity against vancomycin-resistant Enterococcus faecalis 725B assessed as ciprofloxacin concentration causing additive effect after 18 hrs by checkerboard assay; format: functional
Enterococcus faecalis [19] = assay: Antibacterial activity against vancomycin-resistant Enterococcus faecalis 368 assessed as compound concentration causing additive effect after 18 hrs in presence of vancomycin after 18 hrs by checkerboard assay; format: functional
Enterococcus faecalis [20] = assay: Antibacterial activity against vancomycin-resistant Enterococcus faecalis 368 assessed as tetracycline concentration causing additive effect after 18 hrs after 18 hrs by checkerboard assay; format: functional
Enterococcus faecalis [21] = assay: Antibacterial activity against vancomycin-resistant Enterococcus faecalis 368 assessed as compound concentration causing additive effect after 18 hrs in presence of tetracycline after 18 hrs by checkerboard assay; format: functional
Enterococcus faecalis [22] = assay: Antibacterial activity against vancomycin-resistant Enterococcus faecalis 368 assessed as compound concentration causing synergistic effect after 18 hrs in presence of vancomycin by checkerboard assay; format: functional
Enterococcus faecalis [23] = assay: Antibacterial activity against vancomycin-resistant Enterococcus faecalis 368 assessed as vancomycin concentration causing synergistic effect after 18 hrs by checkerboard assay; format: functional

CC(C)[C@H](NC(=O)c1cc(Cl)ccc1O)C(=O)Nc1ccc(C(F)(F)F)cc1
MBC (Enterococcus faecalis [1]): > 617 µM
MIC (Enterococcus faecalis [1]): > 617 µM
MBC (Enterococcus faecalis [2]): 19.3 µM (≈ 8 µg/mL)
MIC (Enterococcus faecalis [2]): 19.3 µM (≈ 8 µg/mL)
MBC (Enterococcus faecalis [3]): > 617 µM
MIC (Enterococcus faecalis [3]): > 617 µM
MBC (Enterococcus faecalis [4]): > 617 µM
MIC (Enterococcus faecalis [4]): > 617 µM

O=C(Nc1ccc(Cl)c(Cl)c1)c1ccc(Cl)cc1O
Activity (Enterococcus faecalis [5]): 0.032 µg/mL
selectivity ratio [6]: 128
Activity (Enterococcus faecalis [7]): 0.032 µg/mL
FIC (Enterococcus faecalis [8]): 1.016 - 1.504
MBC (Enterococcus faecalis [1]): 202 µM (≈ 63.9 µg/mL)
MIC (Enterococcus faecalis [1]): 0.79 µM (≈ 0.25 µg/mL)
Activity (Enterococcus faecalis [9]): 256 µg/mL
FIC (Enterococcus faecalis [10]): 0.629 - 1.128
MBC (Enterococcus faecalis [2]): 1.58 µM (≈ 0.5 µg/mL)
MIC (Enterococcus faecalis [2]): 0.395 µM (≈ 0.125 µg/mL)
FIC (Enterococcus faecalis [11]): 1.016 - 1.504
CC50 at 24 h [12]: 25.6 µM
FIC (Enterococcus faecalis [13]): 0.756 - 1.25
Activity (Enterococcus faecalis [14]): 256 µg/mL
MBC (Enterococcus faecalis [3]): 25.3 µM (≈ 8 µg/mL)
MIC (Enterococcus faecalis [3]): 0.199 µM (≈ 0.063 µg/mL)
FIC (Enterococcus faecalis [15]): 1 - 1.25
MBC (Enterococcus faecalis [4]): 25.3 µM (≈ 8 µg/mL)
MIC (Enterococcus faecalis [4]): 0.199 µM (≈ 0.063 µg/mL)
FIC (Enterococcus faecalis [16]): 1.031 - 2.234
FIC (Enterococcus faecalis [17]): 1.016 - 1.508
Activity (Enterococcus faecalis [18]): 32 µg/mL
Activity (Enterococcus faecalis [19]): 0.25 µg/mL

CC1(C)S[C@@H]2[C@H](NC(=O)[C@H](N)c3ccccc3)C(=O)N2[C@H]1C(=O)O [AMPICILLIN]
MBC (Enterococcus faecalis [4]): 5.72 µM (≈ 2 µg/mL)
MIC (Enterococcus faecalis [4]): 5.72 µM (≈ 2 µg/mL)

CN[C@H](CC(C)C)C(=O)N[C@H]1C(=O)N[C@@H](CC(N)=O)C(=O)N[C@H]2C(=O)N[C@H]3C(=O)N[C@H](C(=O)N[C@H](C(=O)O)c4cc(O)cc(O)c4-c4cc3ccc4O)[C@H](O)c3ccc(c(Cl)c3)Oc3cc2cc(c3O[C@@H]2O[C@H](CO)[C@@H](O)[C@H](O)[C@H]2O[C@H]2C[C@](C)(N)[C@H](O)[C@H](C)O2)Oc2ccc(cc2Cl)[C@H]1O [VANCOMYCIN]
MIC (Enterococcus faecalis [1]): 353 µM (≈ 512 µg/mL)
MIC (Enterococcus faecalis [3]): 353 µM (≈ 512 µg/mL)
MIC (Enterococcus faecalis [4]): 706 µM (≈ 1020 µg/mL)

CC(C)[C@H](NC(=O)OCc1ccccc1)C(=O)Oc1ccc(Cl)cc1C(=O)Nc1ccc([N+](=O)[O-])cc1
MBC (Enterococcus faecalis [1]): > 486 µM
MIC (Enterococcus faecalis [1]): > 486 µM
MBC (Enterococcus faecalis [2]): > 486 µM
MIC (Enterococcus faecalis [2]): > 486 µM
MBC (Enterococcus faecalis [3]): > 486 µM
MIC (Enterococcus faecalis [3]): > 486 µM
MBC (Enterococcus faecalis [4]): > 486 µM
MIC (Enterococcus faecalis [4]): > 486 µM

O=C(Nc1ccc(C(F)(F)F)cc1)c1cc(Cl)ccc1O
Activity (Enterococcus faecalis [20]): 8 µg/mL
Activity (Enterococcus faecalis [5]): 0.125 µg/mL
Activity (Enterococcus faecalis [7]): 0.5 µg/mL
FIC (Enterococcus faecalis [8]): 0.625 - 1.25
MBC (Enterococcus faecalis [1]): > 810 µM
MIC (Enterococcus faecalis [1]): 3.16 µM (≈ 0.998 µg/mL)
Activity (Enterococcus faecalis [9]): 256 µg/mL
FIC (Enterococcus faecalis [10]): 0.75 - 1.25
MBC (Enterococcus faecalis [2]): 6.34 µM (≈ 2 µg/mL)
MIC (Enterococcus faecalis [2]): 0.199 µM (≈ 0.0628 µg/mL)
FIC (Enterococcus faecalis [11]): 1.032 - 1.5
Activity (Enterococcus faecalis [21]): 0.25 µg/mL
Activity (Enterococcus faecalis [22]): 0.125 µg/mL
FIC (Enterococcus faecalis [13]): 0.532 - 1.125
Activity (Enterococcus faecalis [14]): 32 µg/mL
MBC (Enterococcus faecalis [3]): 25.3 µM (≈ 8 µg/mL)
MIC (Enterococcus faecalis [3]): 0.396 µM (≈ 0.125 µg/mL)
Activity (Enterococcus faecalis [23]): 128 µg/mL
FIC (Enterococcus faecalis [15]): 0.375 - 1.064
MBC (Enterococcus faecalis [4]): 25.3 µM (≈ 8 µg/mL)
MIC (Enterococcus faecalis [4]): 0.792 µM (≈ 0.25 µg/mL)
FIC (Enterococcus faecalis [16]): 1 - 1.25
FIC (Enterococcus faecalis [17]): 1.008 - 1.5
Activity (Enterococcus faecalis [18]): 32 µg/mL
Activity (Enterococcus faecalis [19]): 0.25 µg/mL

COc1ccc(NC(=O)c2cc(Cl)ccc2OC(=O)[C@@H](NC(=O)OCc2ccccc2)C(C)C)cc1
MBC (Enterococcus faecalis [1]): > 499 µM
MIC (Enterococcus faecalis [1]): > 499 µM
MBC (Enterococcus faecalis [2]): > 499 µM
MIC (Enterococcus faecalis [2]): > 499 µM
MBC (Enterococcus faecalis [3]): > 499 µM
MIC (Enterococcus faecalis [3]): > 499 µM
MBC (Enterococcus faecalis [4]): > 499 µM
MIC (Enterococcus faecalis [4]): > 499 µM

Cc1ccc(NC(=O)[C@@H](NC(=O)c2cc(Cl)ccc2O)C(C)C)cc1
MBC (Enterococcus faecalis [1]): > 709 µM
MIC (Enterococcus faecalis [1]): > 709 µM
MBC (Enterococcus faecalis [2]): > 709 µM
MIC (Enterococcus faecalis [2]): > 709 µM
MBC (Enterococcus faecalis [3]): > 709 µM
MIC (Enterococcus faecalis [3]): > 709 µM
MBC (Enterococcus faecalis [4]): > 709 µM
MIC (Enterococcus faecalis [4]): > 709 µM

CN(C)[C@@H]1C(O)=C(C(N)=O)C(=O)[C@@]2(O)C(O)=C3C(=O)c4c(O)cccc4[C@@](C)(O)[C@H]3C[C@@H]12 [TETRACYCLINE]
MIC (Enterococcus faecalis [1]): 144 µM (≈ 64 µg/mL)
MIC (Enterococcus faecalis [3]): 144 µM (≈ 64 µg/mL)
MIC (Enterococcus faecalis [4]): 144 µM (≈ 64 µg/mL)

CC(C)[C@H](NC(=O)c1ccc(Cl)cc1O)C(=O)Nc1ccc(Br)cc1
MBC (Enterococcus faecalis [1]): > 601 µM
MIC (Enterococcus faecalis [1]): > 601 µM
MBC (Enterococcus faecalis [2]): > 601 µM
MIC (Enterococcus faecalis [2]): > 601 µM
MBC (Enterococcus faecalis [3]): > 601 µM
MIC (Enterococcus faecalis [3]): > 601 µM
MBC (Enterococcus faecalis [4]): > 601 µM
MIC (Enterococcus faecalis [4]): > 601 µM

CC(C)[C@H](NC(=O)OCc1ccccc1)C(=O)Oc1ccc(Cl)cc1C(=O)Nc1ccc(C(F)(F)F)cc1
MBC (Enterococcus faecalis [1]): > 466 µM
MIC (Enterococcus faecalis [1]): > 466 µM
MBC (Enterococcus faecalis [2]): > 466 µM
MIC (Enterococcus faecalis [2]): > 466 µM
MBC (Enterococcus faecalis [3]): > 466 µM
MIC (Enterococcus faecalis [3]): > 466 µM
MBC (Enterococcus faecalis [4]): > 466 µM
MIC (Enterococcus faecalis [4]): > 466 µM

CC(C)[C@H](NC(=O)OCc1ccccc1)C(=O)Oc1ccc([N+](=O)[O-])cc1C(=O)Nc1ccc(Cl)cc1
MBC (Enterococcus faecalis [1]): > 466 µM
MIC (Enterococcus faecalis [1]): > 466 µM
MBC (Enterococcus faecalis [2]): > 466 µM
MIC (Enterococcus faecalis [2]): > 466 µM
MBC (Enterococcus faecalis [3]): > 466 µM
MIC (Enterococcus faecalis [3]): > 466 µM
MBC (Enterococcus faecalis [4]): > 466 µM
MIC (Enterococcus faecalis [4]): > 466 µM

CC(C)[C@H](NC(=O)OCc1ccccc1)C(=O)Oc1cc(Cl)ccc1C(=O)Nc1ccc(Cl)c(Cl)c1
MBC (Enterococcus faecalis [1]): > 465 µM
MIC (Enterococcus faecalis [1]): > 465 µM
MBC (Enterococcus faecalis [2]): > 465 µM
MIC (Enterococcus faecalis [2]): > 465 µM
MBC (Enterococcus faecalis [3]): > 465 µM
MIC (Enterococcus faecalis [3]): > 465 µM
MBC (Enterococcus faecalis [4]): > 465 µM
MIC (Enterococcus faecalis [4]): > 465 µM

O=C(Nc1ccccc1)c1cc(Cl)ccc1O
MBC (Enterococcus faecalis [1]): 1030 µM (≈ 256 µg/mL)
MIC (Enterococcus faecalis [1]): 129 µM (≈ 32 µg/mL)
MBC (Enterococcus faecalis [2]): 1.01 µM (≈ 0.25 µg/mL)
MIC (Enterococcus faecalis [2]): 0.5 µM (≈ 0.124 µg/mL)
CC50 at 24 h [12]: > 40 µM
MBC (Enterococcus faecalis [3]): > 1030 µM
MIC (Enterococcus faecalis [3]): 64.6 µM (≈ 16 µg/mL)
MBC (Enterococcus faecalis [4]): 516 µM (≈ 128 µg/mL)
MIC (Enterococcus faecalis [4]): 129 µM (≈ 32 µg/mL)

O=C(Nc1ccc(Cl)cc1)c1cc([N+](=O)[O-])ccc1O
MBC (Enterococcus faecalis [1]): > 874 µM
MIC (Enterococcus faecalis [1]): > 874 µM
MBC (Enterococcus faecalis [2]): > 874 µM
MIC (Enterococcus faecalis [2]): > 874 µM
CC50 at 24 h [12]: > 40 µM
MBC (Enterococcus faecalis [3]): > 874 µM
MIC (Enterococcus faecalis [3]): > 874 µM
MBC (Enterococcus faecalis [4]): > 874 µM
MIC (Enterococcus faecalis [4]): > 874 µM

— ChEMBL document CHEMBL4118187, “In vitro activity of salicylamide derivatives against vancomycin-resistant enterococci” (Bioorg Med Chem Lett, 2018)
